# In patent publication US8980793B2, “Phytosanitary formulations” (Centre National de la Recherche Scientifique (CNRS), priority 2007, dated 2015):
# Tests used:
# [1] = Mikado spread on maize plants planted in a field, leaf surface checked by HPLC; settings: spread as Mikado
# Description: For this aim, the commercial formulation, Mikado®, has been spread on maize plants planted in a field.
# The amount of sulcotrione and the formation of a by-product of the phototransformation on the surface of the leaves have been checked by HPLC.
# [2] = cited from earlier work
# [3] = Photodegradation of sulcotrione on carnauba wax films irradiated in a Suntest reactor, HPLC analysis; assay type: physicochemical; settings: wax film, 6 hours irradiation
# Description: The methodology for conducting the tests on thin films of cuticular wax comprises the following steps: • Preparation of the wax film: the wax which is used is the commercial carnauba wax. • Adding the pesticide. On the one hand, the active ingredient, sulcotrione, and on the other hand, the commercial formulation, Mikado®(alone or with the adding of at least one extract of at least one tinctorial plant, is deposited under the form of an aqueous solution on the surface of the leaves. The amount of active ingredient deposited by surface unit is equivalent to the amount used in agriculture. The studies are conducted after evaporation of the water. • Recovering of the pesticide. The films are rinsed with water and analysed by HPLC. It has been checked that the step of recovering is quantitative. • Tests in darkness. The concentration of the active ingredients on the surface of the leaves in darkness is controlled in order to measure the penetration rate of the active ingredient in the films and its volatilisation. […]
# The photoprotective effects of the extracts according to the invention have been evaluated as follows The surface concentration of the active ingredient (sulcotrione) on the wax films is of 0.76 10^−5 g/cm^2, the active ingredient being used either pure or under the form of a commercial formulation. […]
# [4] = Tests in darkness on wax films (penetration and volatilisation); assay type: physicochemical; settings: wax film
# Description: The methodology for conducting the tests on thin films of cuticular wax comprises the following steps: • Preparation of the wax film: the wax which is used is the commercial carnauba wax. • Adding the pesticide. On the one hand, the active ingredient, sulcotrione, and on the other hand, the commercial formulation, Mikado®(alone or with the adding of at least one extract of at least one tinctorial plant, is deposited under the form of an aqueous solution on the surface of the leaves. The amount of active ingredient deposited by surface unit is equivalent to the amount used in agriculture. The studies are conducted after evaporation of the water. • Recovering of the pesticide. The films are rinsed with water and analysed by HPLC. It has been checked that the step of recovering is quantitative. • Tests in darkness. The concentration of the active ingredients on the surface of the leaves in darkness is controlled in order to measure the penetration rate of the active ingredient in the films and its volatilisation. […] Irradiation tests are conducted in a Suntest reactor simulating solar rays in temperate countries.
structure (smiles),measurement,setting,value
CS(=O)(=O)c1ccc(C(=O)C2C(=O)CCCC2=O)c(Cl)c1 [sulcotrione],detection of sulcotrione on the surface of the leaves,"[1]; maize plants in a field, after 24 hours",no longer detected
same,sulcotrione transformed,"[1]; surface of maize leaves in a field, after one hour",25%
same,half-life in water,[2],about 80 days
same,Weight percentage of remaining active ingredient after 6 hours of UV exposure,[3],5-10%
same,penetration of the active ingredient into the films,[4],penetrates slowly into the films
same,volatilisation of the active ingredient,[4],very little active ingredients volatilize
